{
  "source": "patent US20160032404A1",
  "about": "“BIOMARKERS FOR PREDICTING RESPONSE OF DLBCL TO TREATMENT WITH A BTK INHIBITOR” (Pharmacyclics LLC, priority 2014, published 2016)",
  "system": "TMD8-resistant cells",
  "assay": "CellTiter-Glo luminescent cell viability assay, TMD8-resistant versus TMD8-WT cells",
  "assay_type": "cell-based",
  "settings": "ABT-199 for 3 days",
  "data": [
    {"molecule": "CC1(C)CCC(CN2CCN(c3ccc(C(=O)NS(=O)(=O)c4ccc(NCC5CCOCC5)c([N+](=O)[O-])c4)c(Oc4cnc5[nH]ccc5c4)c3)CC2)=C(c2ccc(Cl)cc2)C1", "note": "[ABT-199]", "values": [
      {"measurement": "sensitivity to drug (effect on cell growth) compared to TMD8-WT cells", "result": "more sensitive"}
    ]}
  ]
}
